Assay results as given in patent publication US20090110671A1, “AGENT FOR ENHANCHING THE PRODUCTION OF COLLAGEN AND IT'S USE” (priority 2005, published 2009).

Experiments:
NHDF cells [1] = assay: Experiment 3: collagen production in NHDF cells, α,α-trehalose and saccharide derivatives with or without AA-2G; assay type: cell-based, human; conditions: relative to AA-2G = 100
Procedure: Based on the confirmation that α,α-trehalose has an action of enhancing the collagen production by L-ascorbic acid, it was experimented as follows to confirm whether saccharide derivatives of α,α-trehalose have such a similar action and effect. Test solutions were prepared by dissolving in D-MEM medium any one of AA-2G, hydrous crystalline α,α-trehalose, a reagent grade specimen with a purity of at least 98%, commercialized by Hayashibara Biochemical Laboratories Inc., Okayama, Japan; “HALLODEX”, a product name of a syrup of saccharide derivatives of α,α-trehalose, having a solid content of about 75% and containing, on a dry solid basis, about 53% of α-maltosyl α,α-trehalose and about 5% of other saccharide derivatives of α,α-trehalose in total, to give final concentrations of 50 μM of AA-2G and 15.0 mg/ml of saccharides. As a control, test solutions were prepared by dissolving in D-MEM medium either of the above hydrous crystalline α,α-trehalose, α-maltosyl α,α-trehalose, or syrup of saccharide derivatives of α,α-trehalose to give a final concentration of 15.0 mg/ml. The medium admixed with the syrup containing saccharide derivatives of α,α-trehalose was adjusted to give a concentration of 15.0 mg/ml of saccharide derivatives of α,α-trehalose. The culture of NHDF cells and the quantification of collagen-production level thereof were carried out similarly as in Experiment 1. The results are in Table 3, where the values are expressed with relative values in terms of the collagen production level of NHDF cells, being regarded as 100, when cultured in D-MEM medium containing AA-2G.

NHDF cells [2] = assay: Experiment 2: collagen sedimented over cell surface and released in supernatant of NHDF cells, α,α-trehalose or maltose with AA-2G; assay type: cell-based, human; conditions: relative to AA-2G = 100
Procedure: Influence of α,α-trehalose and maltose on collagen production using NHDF cells was examined by the following experiment: Test solutions were prepared by dissolving either AA-2G; hydrous crystalline α,α-trehalose, a reagent grade specimen, commercialized by Hayashibara Biochemical Laboratories Inc., Okayama, Japan; or hydrous crystalline maltose, a reagent grade specimen, commercialized by Hayashibara Biochemical Laboratories Inc., Okayama; Japan, in […] The methods for culturing NHDF cells and quantifying the collagen-production level of the cells were conducted similarly as in Experiment 1. The collagen level in each culture supernatant of NHDF cells was determined in such a manner of collecting the culture supernatant and quantifying the collagen released in the supernatant by using “Sircol Collagen Quantification Kit”. As a control, D-MEM medium containing 50 μM AA-2G was used. These control and test solutions were respectively experimented using three wells, followed by calculating a mean value for collagen-production levels in the wells. The results are in Table 2 where the values are expressed with relative values for either or both of the levels of collagen, that had sedimented over the cell surfaces or released in the supernatants, in terms of their collagen-production levels of NHDF cells, which had been cultured in D-MEM medium containing 50 μM AA-2G, being regarded as 100.

[3] = saccharide 15.0 mg/ml + 50 μM AA-2G
[4] = saccharide 0.2 mg/ml + 50 μM AA-2G
[5] = saccharide 0.6 mg/ml + 50 μM AA-2G
[6] = saccharide 1.7 mg/ml + 50 μM AA-2G
[7] = saccharide 5.0 mg/ml + 50 μM AA-2G

Question: What does the source list for `OC[C@H]1O[C@H](O[C@H]2O[C@H](CO)[C@@H](O)[C@H](O)[C@H]2O)[C@H](O)[C@@H](O)[C@@H]1O` [α,α-trehalose]?
Answer: Collagen-production level (NHDF cells [1]; [3]): 227; Collagen-production level (NHDF cells [1]; saccharide 15.0 mg/ml, AA-2G not added): 40; Collagen-production level, In supernatant (NHDF cells [2]; [4]): 103; Collagen-production level, Total (NHDF cells [2]; [4]): 101; Collagen-production level, In supernatant (NHDF cells [2]; [5]): 203; Collagen-production level, Total (NHDF cells [2]; [5]): 131; Collagen-production level, In supernatant (NHDF cells [2]; [6]): 250; Collagen-production level, Total (NHDF cells [2]; [6]): 154; Collagen-production level, In supernatant (NHDF cells [2]; [7]): 232; Collagen-production level, Total (NHDF cells [2]; [7]): 169; Collagen-production level, In supernatant (NHDF cells [2]; [3]): 1058; Collagen-production level, Total (NHDF cells [2]; [3]): 335
